Results: paper PMC8228141, “Antiprotozoal Nor-Triterpene Alkaloids from Buxus sempervirens L” (Antibiotics, 2021)
≈ marks a conversion by molar mass, not a printed value. Where “and” joins values, the source holds several entries; their conditions need not be identical. Equal entries are not always repeated. Where two headings read alike, the source gives them in different places.

What was measured:
[1] = tested on: Plasmodium falciparum (Pf) (intraerythrocytic forms, NF54 strain); test: In vitro antiplasmodial activity; assay type: cell-based; conditions: for SI Pf (selectivity index): cytotoxicity L6 vs Pf
Procedure: (§1) After isolation, all alkaloids were tested in vitro for antiplasmodial and antitrypanosomal activity against Plasmodium falciparum (Pf) and Trypanosoma brucei rhodesiense (Tbr). Furthermore, to assess their selectivity against the parasites, cytotoxicity against L6 rat skeletal myoblasts, as mammalian control cells, was tested (Table 4).
(§2) In vitro assays for the bioactivity of the isolated Buxus-alkaloids against Tbr (bloodstream trypomastigotes, STIB 900 strain), Trypanosoma cruzi (Tc) (amastigotes, Tulahuen C4 strain), Leishmania donovani (Ldo) (amastigotes, MHOM-ET-67/L82 strain) and Pf (intraerythrocytic forms, NF54 strain), and cytotoxicity tests against mammalian cells (L6-cell line from rat-skeletal myoblasts), were performed at the Swiss Tropical and Public Health Institute (Swiss TPH, Basel, Switzerland) according to established standard protocols.

[2] = tested on: Trypanosoma brucei rhodesiense (Tbr) (bloodstream trypomastigotes, STIB 900 strain); test: In vitro antitrypanosomal activity; assay type: cell-based; conditions: for SI Tbr (selectivity index): cytotoxicity L6 vs Tbr
Procedure: as §1
In vitro assays for the bioactivity of the isolated Buxus-alkaloids against Tbr (bloodstream trypomastigotes, STIB 900 strain), Trypanosoma cruzi (Tc) (amastigotes, Tulahuen C4 strain), Leishmania donovani (Ldo) (amastigotes, MHOM-ET-67/L82 strain) and Pf (intraerythrocytic forms, NF54 strain), and cytotoxicity tests against mammalian cells (L6-cell line from rat-skeletal myoblasts), were performed at the Swiss Tropical and Public Health Institute (Swiss TPH, Basel, Switzerland) according to established standard protocols. […] Such a pattern of activity was also observed in other studies.

[3] = Cytotoxicity against mammalian control cells; assay type: cell-based, rat; conditions: rat
Procedure: as §1, §2

[4] = tested on: L6 rat skeletal myoblasts; test: Cytotoxicity against mammalian control cells; assay type: cell-based; conditions: L6 cell line; for Cytotox. IC50: mean of n = 2 (fluctuation range) or * n = 3 (SD); for IC50: read-out: Cytotox. IC50 (in parentheses) (converted)
Procedure: as §1, §2

[5] = NF54 strain, read-out: Pf IC50 (in parentheses) (converted)
[6] = Plasmodium falciparum, NF54, NF54 strain, mean of n = 2 (fluctuation range) or * n = 3 (SD), read-out: Pf IC50
[7] = Plasmodium falciparum, NF54, NF54 strain, read-out: Pf IC50 (in parentheses) (converted)
[8] = Trypanosoma brucei, STIB 900 strain, mean of n = 2 (fluctuation range) or * n = 3 (SD), read-out: Tbr IC50
[9] = Trypanosoma brucei, STIB 900 strain, read-out: Tbr IC50 (in parentheses) (converted)
[10] = NF54 strain, mean of n = 2 (fluctuation range) or * n = 3 (SD)
[11] = STIB 900 strain, mean of n = 2 (fluctuation range) or * n = 3 (SD)
[12] = STIB 900 strain, read-out: Tbr IC50 (in parentheses) (converted)

SMILES | IC50 [1, 5] [µM] | Pf IC50 [1, 10] [µg/mL] | Tbr IC50 [2, 11] [µg/mL] | IC50 [2, 12] [µM] | Cytotox. IC50 [4] [µg/mL] | IC50 [4] [µM] | further results
CCN(CC)CCCC(C)Nc1ccnc2cc(Cl)ccc12 (stereo not drawn) [Chloroquine, reference compound] |  |  |  |  |  |  | IC50 ([1]; Plasmodium falciparum, NF54, read-out: Pf IC50): 0.006 ± 0.001 µg/mL; IC50 ([1]; Plasmodium falciparum, NF54, read-out: Pf IC50 (in parentheses)): 0.019 µM
C/C=C(\C)C(=O)O[C@@H]1C[C@@]2(C)[C@@H]3C=C[C@H]4[C@](C)(CO)[C@@H](N(C)C)CC[C@@]45C[C@@]35CC[C@]2(C)[C@H]1[C@H](C)NC [Compound 3, O-tigloylcyclomicrophylline-B] | 0.98 |  |  |  |  |  | IC50 [1, 6]: 0.5 ± 0.06 µg/mL; IC50 [1, 7]: < 1 µM; SI Pf (selectivity index) [1]: 72; IC50 [2, 8]: 4.6 ± 0.005 µg/mL; IC50 [2, 9]: 9 µM; SI Tbr (selectivity index) [2]: 8; IC50 [3]: 35.8 µg/mL and 69.9 µM
C/C=C(\C)C(=O)O[C@@H]1C[C@@]2(C)[C@@H]3C=C[C@H]4[C@](C)(CO)[C@@H](N(C)C)CC[C@@]45C[C@@]35CC[C@]2(C)[C@H]1[C@H](C)N(C)C [Compound 4, O-tigloylcyclomicrophylline-A] | 0.7 |  |  |  |  |  | IC50 [1, 6]: 0.35 ± 0.08 µg/mL; IC50 [1, 7]: < 1 µM; SI Pf (selectivity index) [1]: 34; IC50 [2, 8]: 1.5 ± 0.76 µg/mL; IC50 [2, 9]: 2.9 µM; SI Tbr (selectivity index) [2]: 8; IC50 [3]: 12 µg/mL and 22.8 µM
CC(C1C(O)CC2(C)C3C=CC4C(C)(CO)C(N(C)C)CCC45CC35CCC12C)N(C)C (stereo not drawn) [Compound 5, Cyclomicrophylline-A] | 1.76 | 0.78 ± 0.08 | 1.04 ± 0.27 | 2.34 | 44 ± 2.3 | 99 | 
CC(C1C(OC(=O)c2ccccc2)CC2(C)C3C=CC4C(C)(CO)C(N(C)C)CCC45CC35CCC12C)N(C)C (stereo not drawn) [Compound 6, Cyclomicrophyllidine-A] | 0.7 | 0.4 ± 0.02 | 0.69 ± 0.06 | 1.3 | 9.3 ± 3 | 17 | 
CN[C@@H](C)[C@H]1[C@H](OC(=O)c2ccccc2)C[C@@]2(C)[C@@H]3C=C[C@H]4[C@](C)(CO)[C@@H](N(C)C)CC[C@@]45C[C@@]35CC[C@]12C [Compound 7, Cyclomicrophyllidine-B] |  |  |  |  |  |  | IC50 [1, 6]: 0.11 ± 0.01 µg/mL; IC50 [1, 7]: 0.2 µM; SI Pf (selectivity index) [1]: 145; IC50 [2, 8]: 1.9 ± 0.3 µg/mL; IC50 [2, 9]: 3.6 µM; SI Tbr (selectivity index) [2]: 8; IC50 [3]: 16 µg/mL and 29.9 µM
CN[C@@H](C)[C@H]1CC[C@@]2(C)[C@@H]3CC[C@H]4C(C)(C)[C@@H](NC)[C@H](OC(=O)c5ccccc5)C[C@@]45C[C@@]35CC[C@]12C [Compound 8, O-benzoyl-cycloprotobuxoline-D] |  |  |  |  |  |  | IC50 [1, 6]: 0.09 ± 0.03 µg/mL; IC50 [1, 7]: 0.18 µM; SI Pf (selectivity index) [1]: 74; IC50 [2, 8]: 0.55 ± 0.18 µg/mL; IC50 [2, 9]: 1.1 µM; SI Tbr (selectivity index) [2]: 12; IC50 [3]: 6.65 µg/mL and 13.1 µM
CC(=O)OC[C@]1(C)[C@@H](NC(=O)c2ccccc2)CC[C@]23C[C@]24C(=O)C[C@]2(C)[C@@H]([C@H](C)N(C)C)CC[C@@]2(C)[C@@H]4CC[C@@H]13 [Compound 9, N-benzoyl-O-acetyl-cycloxo-buxoline-F] | 3.8 | 2.15 ± 0.29 | 1.35 ± 0.45 | 2.4 | 41 ± 0.7 | 73 | 
C[C@@H]([C@H]1[C@H](O)C[C@@]2(C)[C@@H]3CC[C@@H]4[C@@]5(CCC(=O)[C@@]4(C)CO)C[C@@]35CC[C@]12C)N(C)C [Compound 11, 29-hydroxy-cyclomikuranine-L] |  |  |  |  |  |  | IC50 [1, 6]: 0.9 ± 0.13 µg/mL; IC50 [1, 7]: 2.2 µM; SI Pf (selectivity index) [1]: 49; IC50 [2, 8]: 2.9 ± 1 µg/mL; IC50 [2, 9]: 7 µM; SI Tbr (selectivity index) [2]: 15; IC50 [3]: 44 µg/mL and 105 µM
C[C@@H]([C@H]1[C@H](O)C[C@@]2(C)[C@@H]3CC[C@H]4C(C)(C)C(=O)C=C[C@@]45C[C@@]35CC[C@]12C)N(C)C [Compound 12, Nb-dimethylcycloxobuxoviricine] | 3.5 | 1.4 ± 0.44 | 2.5 ± 0.1 | 6.3 | 19 ± 1.2 | 47.6 | 
C=C1[C@@H](N(C)C)CC[C@]23C[C@]24CC[C@]2(C)[C@@H](C(C)=O)[C@H](O)C[C@@]2(C)[C@@H]4CC[C@@H]13 [Compound 18, Cyclomicrobuxine] | 6.8 | 2.6 ± 0.005 | 16.9 ± 2.3 | 44 | 26.8 ± 8.8 | 69.6 | 
C[C@@H]([C@H]1CC[C@H]2[C@@H]3CC=C4C[C@@H](O)CC[C@]4(C)[C@H]3CC[C@]12C)N(C)C [Compound 19, Irehine] | 3.8 | 1.3 ± 0.35 | 2.2 ± 0.07 | 6.4 | 13.4 ± 0.5 | 38.8 | 
CC(=O)[C@H]1[C@H](O)C[C@@]2(C)[C@@H]3CC[C@@H]4C(=CC3=CC[C@]12C)CC[C@H](N(C)C)C4(C)C [Compound 20, 16-α-hydroxybuxaminone] | 4 | 1.6 ± 0.57 | 5.26 ± 0.3 | 13.2 | 45 ± 1 | 113 | 
CC(=O)N[C@@H](C)[C@H]1CC[C@@]2(C)[C@@H]3CC[C@@H]4C(=CC3=CC[C@]12C)CC[C@H](N(C)C)C4(C)C [Compound 21, N20-acetylbuxamine-E] | 7.3 | 3.1 ± 0.24 | 53 ± 1 | 124 | 54.8 ± 1.1 | 129 | 
CC(=O)O[C@@H]1C[C@@]2(C)[C@@H]3CC[C@@H]4C(=CC3=CC[C@]2(C)[C@H]1[C@H](C)NC(=O)c1ccccc1)CC[C@H](N(C)C)C4(C)C [Compound 22, N-benzoyl-O-acetylbuxodienine-E] |  |  | 3.4 ± 1 |  | 8.5 ± 0.1 | 15.6 | 
Nc1nc(N)nc(Nc2ccc([As]3SCC(CO)S3)cc2)n1 (stereo not drawn) [Melarsoprol, reference compound] |  |  |  |  |  |  | IC50 ([2]; Trypanosoma brucei, read-out: Tbr IC50): 0.005 ± 0.001 µg/mL; IC50 ([2]; Trypanosoma brucei, read-out: Tbr IC50 (in parentheses)): 0.013 µM
COc1cc([C@@H]2c3cc4c(cc3[C@H](O)[C@H]3COC(=O)[C@H]23)OCO4)cc(OC)c1OC [Podophyllotoxin, reference compound] |  |  |  |  |  |  | IC50 ([3]; L6 cell line, mean of n = 2 (fluctuation range) or * n = 3 (SD), read-out: Cytotox. IC50): 0.006 ± 0.001 µg/mL (≈ 0.0145 µM)
